Like-named read-outs stand apart in the source and are kept apart here.
Columns and labels:
[1] = Chemical hydrolysis in isotonic Sorensen phosphate buffer, followed spectrophotometrically; type: physicochemical; settings: pH 7.4, 25°C, no enzyme, read-out: apparent half lives for chemical hydrolysis
[2] = Hydrolysis in the presence of porcine liver esterase (half-lives, Michaelis-Menten parameters from Lineweaver Burk plots); type: in vitro ADME; settings: pig; 60 × 10⁻⁴ units/ml porcine liver esterase, initial substrate concentration 16 µM, pH 7.4, 25°C; read-out: apparent half lives in the presence of porcine liver esterase
Porcine liver esterase = assay: as above; type: in vitro ADME
[3] = Hydrolysis in the presence of rat plasma; type: in vitro ADME
[4] = Hydrolysis in the presence of human plasma; type: in vitro ADME
[5] = Hydrolysis in the presence of rat liver homogenates; type: in vitro ADME
[6] = Hydrolysis in the presence of rat intestinal homogenates; type: in vitro ADME
carbonic anhydrase = assay: Hydrolysis in the presence of carbonic anhydrase; type: in vitro ADME

CCOC(=O)C1=C(Nc2ccccc2)CCCC1 [Example 2, Ethyl 2-(N-phenylamino)-l-cyclohexene-l-carboxylate]
half-life [1]: 18 min | half-life at 16 µM [2]: 10 min | Km (Porcine liver esterase; average over the three enzyme concentrations, read-out: Average Km): 7.2 mM | Vmax ± S.D. (Porcine liver esterase; enzyme concentration 16.7 (Units/ml x 10^4)): 45.5 ± 3 mM/h | Km (Porcine liver esterase; enzyme concentration 16.7 (Units/ml x 10^4), read-out: Km ± S.D.): 11.2 ± 0.1 mM | Vmax ± S.D. (Porcine liver esterase; enzyme concentration 32.4 (Units/ml x 10^4)): 56.8 ± 8 mM/h | Km (Porcine liver esterase; enzyme concentration 32.4 (Units/ml x 10^4), read-out: Km ± S.D.): 5.3 ± 0.2 mM | Vmax ± S.D. (Porcine liver esterase; enzyme concentration 61.2 (Units/ml x 10^4)): 95.2 ± 10 mM/h | Km (Porcine liver esterase; enzyme concentration 61.2 (Units/ml x 10^4), read-out: Km ± S.D.): 5.2 ± 0.2 mM | Catalysis of the hydrolysis [3]: not observed | Catalysis of the hydrolysis [4]: not observed | Catalysis of the hydrolysis [5]: not observed | Catalysis of the hydrolysis [6]: not observed | Catalysis of the hydrolysis (carbonic anhydrase): not observed
